Structures are written as SMILES.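 In this assay, cells in 96-well plates receive the compound at five concentrations for 48 hours. Endpoints are linearly interpolated between the surrounding concentrations. GI50: concentration for 50% inhibition of growth. At the TGI there is no net growth.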 Some results are limits rather than exact numbers.

Test systems include OVCAR-5 ovarian; SNB-75 CNS; U251 CNS; HS 578T breast; K-562 leukemia; COLO 205 colon; MCF7 breast; CAKI-1 renal; SR leukemia; UACC-62 melanoma.
What all share (assay): NCI tumour cell line growth inhibition, 48 h

As for `COC(=O)/C=C\C(C#N)(C#N)N=Cc1ccccc1`, the TGI in the experiment with OVCAR-5 ovarian was 38.7 µM; in the experiment on SNB-75 CNS it was 14.5 µM; in the experiment with U251 CNS, 35.6 µM; with HS 578T breast it was 36.2 µM; in the experiment on K-562 leukemia, 15 µM; in the experiment on COLO 205 colon, 2.97 µM. Moreover, the TGI with MCF7 breast was found to be 5.73 µM; with CAKI-1 renal, 7.31 µM; with SR leukemia, 3.36 µM; in the experiment on UACC-62 melanoma, 28 µM.

In the case of `CC(=O)c1ccccc1NCC(=O)Nn1cnc2ccc(S(=O)(=O)Nc3ccccc3C(C)=O)cc2c1=O`, the TGI in the experiment with OVCAR-5 ovarian, in the experiment with SNB-75 CNS, with U251 CNS, with HS 578T breast, in the experiment with K-562 leukemia and with COLO 205 colon was more than 100 µM each time. For the same compound, the TGI in the experiment on MCF7 breast, with CAKI-1 renal, in the experiment on SR leukemia and with UACC-62 melanoma was more than 100 µM in each case.

In the case of `CSc1c(C#N)c(N)nc2c(N=Nc3ccc(Br)cc3)c(N)nn12`, the TGI was found to be 33.3 µM with OVCAR-5 ovarian; 28.8 µM in the experiment with SNB-75 CNS; 16.8 µM in the experiment with U251 CNS; 5.81 µM with HS 578T breast; 21.4 µM with K-562 leukemia; 25.1 µM with COLO 205 colon. The TGI in the experiment with MCF7 breast stood at 8.63 µM; in the experiment with CAKI-1 renal it was 26 µM; in the experiment on SR leukemia it was 6.76 µM; in the experiment on UACC-62 melanoma, 19.4 µM.

Take `COC12CCCN1c1ccn(Cc3ccccc3)c(=O)c1C2=O` (stereo not given): the TGI in the experiment with OVCAR-5 ovarian, in the experiment on SNB-75 CNS, in the experiment with U251 CNS, in the experiment with HS 578T breast, with K-562 leukemia and with COLO 205 colon was more than 100 µM throughout. The TGI with MCF7 breast, with CAKI-1 renal, in the experiment with SR leukemia and with UACC-62 melanoma was more than 100 µM in each case.

As to `Brc1ccc2c3c1[C@H]1O[C@H]1c1cccc(c1-3)[C@@H]1O[C@H]21`, the TGI in the experiment with OVCAR-5 ovarian was 37.2 µM; in the experiment with SNB-75 CNS, 26.3 µM; in the experiment on U251 CNS, 37.1 µM; in the experiment with HS 578T breast, 59.5 µM; in the experiment on K-562 leukemia, more than 100 µM; in the experiment with COLO 205 colon, 38.3 µM. For the same compound, the TGI was 73.1 µM in the experiment with MCF7 breast, 31.6 µM with CAKI-1 renal, more than 100 µM with SR leukemia and 32.5 µM in the experiment with UACC-62 melanoma.

As for `CCCCCCCC(CC(=O)NC(CO)C(=O)NC(CO)CC(C)C)OC(=O)CC(CCCCCCC)OC(=O)CC(CCCCCCC)OC1OC(C)C(O)C(OC2OC(C)C(O)C(O)C2OC(C)=O)C1O` (stereo not given), the TGI in the experiment with OVCAR-5 ovarian was found to be 21.9 µM; in the experiment on SNB-75 CNS it was 17.6 µM; in the experiment on U251 CNS, 20.1 µM; in the experiment with HS 578T breast, 19.1 µM; in the experiment with K-562 leukemia it was 16.8 µM; with COLO 205 colon it was 5.47 µM. In addition, the TGI was found to be 23.8 µM with MCF7 breast, 28.3 µM in the experiment on CAKI-1 renal, 4.93 µM in the experiment on SR leukemia and 18.6 µM in the experiment with UACC-62 melanoma.

For `NNc1nncc2[nH]cnc12`, the TGI in the experiment on OVCAR-5 ovarian, with SNB-75 CNS, with U251 CNS, in the experiment with HS 578T breast, in the experiment with K-562 leukemia and in the experiment on COLO 205 colon was more than 100 µM in each case. The TGI in the experiment on MCF7 breast, with CAKI-1 renal, in the experiment with SR leukemia and with UACC-62 melanoma was more than 100 µM in each case.

`Nc1ccccc1.[C-]#[O+].[C-]#[O+].[C-]#[O+].[C-]#[O+].[C-]#[O+].[Cr]`: the GI50 with OVCAR-5 ovarian was more than 10 µM; in the experiment on SNB-75 CNS, 4.05 µM; with U251 CNS, 9.45 µM; in the experiment with HS 578T breast, 3.28 µM; in the experiment on K-562 leukemia, 2.98 µM; with COLO 205 colon it was 3.52 µM. Besides, the GI50 in the experiment with MCF7 breast is 2.43 µM; in the experiment with CAKI-1 renal, 2.04 µM; with SR leukemia, 4.64 µM; in the experiment on UACC-62 melanoma, 2.42 µM. For the same compound, the TGI in the experiment on OVCAR-5 ovarian, in the experiment on SNB-75 CNS, with U251 CNS, in the experiment with HS 578T breast, in the experiment on K-562 leukemia and in the experiment with COLO 205 colon was more than 10 µM throughout. In addition, the TGI was more than 10 µM in the experiment on MCF7 breast, 8.3 µM in the experiment on CAKI-1 renal, more than 10 µM with SR leukemia and 9.64 µM in the experiment with UACC-62 melanoma.

In the case of `CCCCCc1cc2cc3c(c(O)c2c(=O)[nH]1)C1(CCC3)C(O)=c2c(=O)c3c(=O)cc(OC)c(=O)c=3c(=O)c2=C1O` (stereo not given), the TGI in the experiment on OVCAR-5 ovarian was 4.47 µM; in the experiment on SNB-75 CNS, 3.67 µM; in the experiment on U251 CNS it was 2.61 µM; in the experiment on HS 578T breast, 5.42 µM; in the experiment on K-562 leukemia it was more than 18.7 µM; with COLO 205 colon, 0.564 µM. The TGI in the experiment with MCF7 breast was found to be 2.06 µM; in the experiment with CAKI-1 renal it was 2.8 µM; in the experiment with SR leukemia, 4.27 µM; with UACC-62 melanoma, 3.29 µM.

Regarding `COC(OC)C1OCC(n2cc(F)c(=O)[nH]c2=O)C1O` (stereo not given), the TGI in the experiment with OVCAR-5 ovarian, with SNB-75 CNS, in the experiment with U251 CNS, in the experiment on HS 578T breast, in the experiment with K-562 leukemia and with COLO 205 colon was more than 100 µM each time. Further, the TGI with MCF7 breast, in the experiment on CAKI-1 renal, in the experiment with SR leukemia and in the experiment with UACC-62 melanoma was more than 100 µM throughout.

Turning to `COc1cc(C2SC(C)C(=O)N2c2ccc(-c3csc(NS(=O)(=O)c4ccc(Cl)c(OC)c4)n3)cc2)ccc1O` (stereo not given), the TGI in the experiment on OVCAR-5 ovarian is more than 100 µM; in the experiment with SNB-75 CNS it was 61 µM; with U251 CNS, more than 100 µM; in the experiment on HS 578T breast, more than 100 µM; in the experiment on K-562 leukemia it was more than 100 µM; in the experiment on COLO 205 colon it was more than 100 µM. The TGI with MCF7 breast is more than 100 µM; in the experiment with CAKI-1 renal, more than 100 µM; in the experiment with SR leukemia, more than 100 µM; in the experiment on UACC-62 melanoma, 55.3 µM.

(Values after PubChem BioAssay (NCI).)
